From US9120756B2, “Substituted phenylureas and phenylamides as vanilloid receptor ligands” (Gruenenthal GmbH, priority 2009, dated 2015)

What was measured:
Format in all cases: cell-based
hVR1 [1] = target: T1, hVR1 (Homo sapiens (Human), UniProt Q8NER1); assay: FLIPR Ca2+ influx assay on CHO K1 cells transfected with the VR1 gene, capsaicin stimulus (method II); details: for Ki: capsaicin (Cap), read-out: Ki (human being) [nM] Cap; for inhibition at 1 µM: CHO-K1, read-out: Ki (human being) inhibition (as a percentage) @ 1 μM, capsaicin, inhibition determined at 1 μM
T1 sequence (Q8NER1 whole entry): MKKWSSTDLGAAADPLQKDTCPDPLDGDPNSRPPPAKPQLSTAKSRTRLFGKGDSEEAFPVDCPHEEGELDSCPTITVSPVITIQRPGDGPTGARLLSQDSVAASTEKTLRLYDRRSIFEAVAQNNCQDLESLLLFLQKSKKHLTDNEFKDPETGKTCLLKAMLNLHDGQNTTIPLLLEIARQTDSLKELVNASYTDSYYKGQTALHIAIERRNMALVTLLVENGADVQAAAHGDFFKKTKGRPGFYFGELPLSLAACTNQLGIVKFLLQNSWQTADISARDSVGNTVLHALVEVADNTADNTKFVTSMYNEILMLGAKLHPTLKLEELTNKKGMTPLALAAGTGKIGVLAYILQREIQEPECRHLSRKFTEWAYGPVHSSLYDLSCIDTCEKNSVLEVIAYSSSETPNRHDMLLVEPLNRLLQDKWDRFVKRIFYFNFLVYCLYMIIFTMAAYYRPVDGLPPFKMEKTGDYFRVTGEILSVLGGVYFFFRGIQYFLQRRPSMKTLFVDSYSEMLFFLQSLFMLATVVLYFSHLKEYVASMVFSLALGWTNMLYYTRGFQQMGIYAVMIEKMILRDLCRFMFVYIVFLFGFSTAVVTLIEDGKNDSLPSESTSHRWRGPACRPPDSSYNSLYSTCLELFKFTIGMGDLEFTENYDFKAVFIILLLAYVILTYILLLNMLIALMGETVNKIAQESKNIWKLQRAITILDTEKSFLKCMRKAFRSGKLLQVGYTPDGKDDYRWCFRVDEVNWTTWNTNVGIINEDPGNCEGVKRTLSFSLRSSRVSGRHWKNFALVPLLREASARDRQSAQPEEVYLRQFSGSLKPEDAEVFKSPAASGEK
Text: In the process, the Ca^2+ influx is quantified in the FLIPR assay with the aid of a Ca^2+-sensitive dye (type Fluo-4, Molecular Probes Europe BV, Leiden, the Netherlands) in a fluorescent imaging plate reader (FLIPR, Molecular Devices, Sunnyvale, USA), as described hereinafter.
(§1) The agonistic or antagonistic effect of the substances to be tested on the vanilloid receptor 1 (VR1) can also be determined using the following assay. In this assay, the influx of Ca^2+ through the channel is quantified with the aid of a Ca^2+-sensitive dye (type Fluo-4, Molecular Probes Europe BV, Leiden, the Netherlands) in a fluorescent imaging plate reader (FLIPR, Molecular Devices, Sunnyvale, USA).
(§2) Chinese hamster ovary cells (CHO K1 cells, European Collection of Cell Cultures (ECACC) United Kingdom) are stably transfected with the VR1 gene. For functional testing, these cells are plated out on poly-D-lysine-coated black 96-well plates having a clear base (BD Biosciences, Heidelberg, Germany) at a density of 25,000 cells/well. The cells are incubated overnight at 37° C. and 5% CO2 in a culture medium (Ham's F12 nutrient mixture, 10% by volume of FCS (foetal calf serum), 18 μg/ml of L-proline). The next day the cells are incubated with Fluo-4 (Fluo-4 2 μM, 0.01% by volume of Pluronic F127, Molecular Probes in HBSS (Hank's buffered saline solution), Gibco Invitrogen GmbH, Karlsruhe, Germany) for 30 minutes at 37° C. Subsequently, the plates are washed three times with HBSS buffer and after further incubation for 15 minutes at RT used for Ca^2+ measurement in a FLIPR assay. The Ca^2+-dependent fluorescence is measured before and after the addition of the substances to be tested (λex wavelength=488 nm, λem=540 nm). Quantification is carried out by measuring the highest fluorescence intensity (FC, fluorescence counts) over time.
The FLIPR protocol consists of 2 substance additions. First the compounds to be tested (10 μM) are pipetted onto the cells and the Ca^2+ influx is compared with the control (capsaicin 10 μM) (% activation based on the Ca^2+ signal after the addition of 10 μM of capsaicin). After 5 minutes' incubation, 100 nM of capsaicin are applied and the Ca^2+ influx is also determined.
(§3) Desensitising agonists and antagonists led to suppression of the Ca^2+ influx.
Starting from the percentage displacement caused by different concentrations of the compounds to be tested of general formula I, IC50 inhibitory concentrations which cause a 50-percent displacement of capsaicin were calculated. Ki values for the test substances were obtained by conversion by means of the Cheng-Prusoff equation (Cheng, Prusoff; Biochem. Pharmacol. 22, 3099-3108, 1973).

hVR1 [2] = target: T1, hVR1; assay: FLIPR assay hVR1, after pH stimulus; set-up: key to IC50 (human being) hVR1 pH: result in words (NE / AG): AG=agonist; pAG=partial agonist; NE=no effect; details: for inhibition at 10 µM: read-out: IC50 (human being) hVR1 pH: inhibition (as a percentage) @ 10 μM, inhibition determined at 10 μM
Protocol: In this assay, the influx of Ca^2+ through the channel is quantified with the aid of a Ca^2+-sensitive dye (type Fluo-4, Molecular Probes Europe BV, Leiden, the Netherlands) in a fluorescent imaging plate reader (FLIPR, Molecular Devices, Sunnyvale, USA). Chinese hamster ovary cells (CHO K1 cells, European Collection of Cell Cultures (ECACC) United Kingdom) are stably transfected with the VR1 gene. For functional testing, these cells are plated out on poly-D-lysine-coated black 96-well plates having a clear base (BD Biosciences, Heidelberg, Germany) at a density of 25,000 cells/well. […] Subsequently, the plates are washed three times with HBSS buffer and after further incubation for 15 minutes at RT used for Ca^2+ measurement in a FLIPR assay. […] Quantification is carried out by measuring the highest fluorescence intensity (FC, fluorescence counts) over time. The FLIPR protocol consists of 2 substance additions. […] Desensitising agonists and antagonists led to suppression of the Ca^2+ influx. […] Ki values for the test substances were obtained by conversion by means of the Cheng-Prusoff equation (Cheng, Prusoff; Biochem. Pharmacol. 22, 3099-3108, 1973).

hVR1 [3] = target: T1, hVR1; assay: FLIPR assay human VR1, 45° C. stimulus
Text: as §1, §2
The FLIPR protocol consists of 2 substance additions. […]
as §3
Ki values for the test substances were obtained by conversion by means of the Cheng-Prusoff equation (Cheng, Prusoff; Biochem. Pharmacol. 22, 3099-3108, 1973).

[4] = target: rat-species vanilloid receptor 1 (VR1/TRPV1) (Rattus norvegicus (Rat), UniProt O35433); assay: FLIPR Ca2+ influx assay on rat dorsal root ganglia cells, capsaicin stimulus (method I); details: for Ki: capsaicin (Cap)
rat-species vanilloid receptor 1 (VR1/TRPV1), sequence (O35433 whole entry): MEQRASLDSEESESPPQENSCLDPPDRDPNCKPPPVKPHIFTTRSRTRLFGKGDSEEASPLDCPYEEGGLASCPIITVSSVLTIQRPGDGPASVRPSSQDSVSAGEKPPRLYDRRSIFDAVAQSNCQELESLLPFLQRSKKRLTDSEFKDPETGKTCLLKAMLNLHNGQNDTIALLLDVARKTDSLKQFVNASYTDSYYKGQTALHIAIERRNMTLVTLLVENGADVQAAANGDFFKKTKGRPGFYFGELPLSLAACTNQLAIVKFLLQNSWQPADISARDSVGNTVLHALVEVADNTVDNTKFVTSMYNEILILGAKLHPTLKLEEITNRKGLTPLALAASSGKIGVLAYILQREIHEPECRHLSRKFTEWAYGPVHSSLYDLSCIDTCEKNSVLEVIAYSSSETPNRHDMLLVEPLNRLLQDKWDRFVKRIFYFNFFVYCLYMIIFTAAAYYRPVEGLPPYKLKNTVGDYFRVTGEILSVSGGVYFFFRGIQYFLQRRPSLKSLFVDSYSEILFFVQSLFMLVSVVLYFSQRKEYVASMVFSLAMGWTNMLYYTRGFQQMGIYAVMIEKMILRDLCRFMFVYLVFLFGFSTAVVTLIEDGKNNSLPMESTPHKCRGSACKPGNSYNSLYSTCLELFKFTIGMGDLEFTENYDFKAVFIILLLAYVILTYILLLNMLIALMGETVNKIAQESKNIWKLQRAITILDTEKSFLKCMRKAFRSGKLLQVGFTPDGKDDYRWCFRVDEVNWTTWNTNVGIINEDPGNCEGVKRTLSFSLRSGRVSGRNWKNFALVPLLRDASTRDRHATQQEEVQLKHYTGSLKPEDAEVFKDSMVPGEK
Protocol: The agonistic or antagonistic effect of the substances to be tested on the rat-species vanilloid receptor 1 (VR1/TRPV1) can be determined using the following assay. In this assay, the influx of Ca^2+ through the receptor channel is quantified with the aid of a Ca^2+-sensitive dye (type Fluo-4, Molecular Probes Europe BV, Leiden, the Netherlands) in a fluorescent imaging plate reader (FLIPR, Molecular Devices, Sunnyvale, USA).
Complete medium: 50 ml HAMS F12 nutrient mixture (Gibco Invitrogen GmbH, Karlsruhe, Germany) with
10% by volume of FCS (foetal calf serum, Gibco Invitrogen GmbH, Karlsruhe, Germany, heat-inactivated);
2 mM L-glutamine (Sigma, Munich, Germany);
1% by weight of AA solution (antibiotic/antimyotic solution, PAA, Pasching, Austria) and 25 ng/ml NGF medium (2.5 S, Gibco Invitrogen GmbH, Karlsruhe, Germany)
Cell culture plate: Poly-D-lysine-coated, black 96-well plates having a clear base (96-well black/clear plate, BD Biosciences, Heidelberg, Germany) are additionally coated with laminin (Gibco Invitrogen GmbH, Karlsruhe, Germany), the laminin being diluted with PBS (Ca—Mg-free PBS, Gibco Invitrogen GmbH, Karlsruhe, Germany) to a concentration of 100 μg/ml. Aliquots having a laminin concentration of 100 μg/ml are removed and stored at −20° C. The aliquots are diluted with PBS in a ratio of 1:10 to 10 μg/ml of laminin and respectively 50 μL of the solution are pipetted into a recess in the cell culture plate. The cell culture plates are incubated for at least two hours at 37° C., the excess solution is removed by suction and the recesses are each washed twice with PBS. The coated cell culture plates are stored with excess PBS which is not removed until just before the feeding of the cells.
The vertebral column is removed from decapitated rats and placed immediately into cold HBSS buffer (Hank's buffered saline solution, Gibco Invitrogen GmbH, Karlsruhe, Germany), i.e. buffer located in an ice bath, mixed with 1% by volume (percent by volume) of an AA solution (antibiotic/antimyotic solution, PAA, Pasching, Austria). The vertebral column is cut longitudinally and removed together with fasciae from the vertebral canal. Subsequently, the dorsal root ganglia (DRG) are removed and again stored in cold HBSS buffer mixed with 1% by volume of an AA solution. The DRG, from which all blood remnants and spinal nerves have been removed, are transferred in each case to 500 μL of cold type 2 collagenase (PAA, Pasching, Austria) and incubated for 35 minutes at 37° C. After the addition of 2.5% by volume of trypsin (PAA, Pasching, Austria), incubation is continued for 10 minutes at 37° C. After complete incubation, the enzyme solution is carefully pipetted off and 500 μL of complete medium are added to each of the remaining DRG. […] The contents of each Falcon tube are respectively filtered through a 70 μm Falcon filter element and centrifuged for 10 minutes at 1,200 rpm and RT. The resulting pellet is respectively taken up in 250 μL of complete medium and the cell count is determined.
The number of cells in the suspension is set to 3×10^5 per ml and 150 μL of this suspension are in each case introduced into a recess in the cell culture plates coated as described hereinbefore. […] Subsequently, the cells are loaded with 2 μM of Fluo-4 and 0.01% by volume of Pluronic F127 (Molecular Probes Europe BV, Leiden, the Netherlands) in HBSS buffer (Hank's buffered saline solution, Gibco Invitrogen GmbH, Karlsruhe, Germany) for 30 min at 37° C., washed 3 times with HBSS buffer and after further incubation for 15 minutes at RT used for Ca^2+ measurement in a FLIPR assay. The Ca^2+-dependent fluorescence is in this case measured before and after the addition of substances (λex=488 nm, λem=540 nm). Quantification is carried out by measuring the highest fluorescence intensity (FC, fluorescence counts) over time.
The FLIPR protocol consists of 2 substance additions.

| Structure (SMILES) | Ki (hVR1 [1]) | IC50 (human being) hVR1 pH: result in words (NE / AG) (hVR1 [2]) | Ki [4] | further results |
| --- | --- | --- | --- | --- |
| CC(C(=O)NCc1cc(C(C)(C)C)nn1-c1cccc(Cl)c1)c1ccc(NS(C)(=O)=O)c(F)c1 (stereo not drawn) [Example 16, N-((3-tert-butyl-1-(3-chlorophenyl)-1H-pyrazol-5-yl)methyl)-2-(3-fluoro-4-(methylsulphonamido)phenyl)propanamide] | 0.3 nM | NE | – | inhibition at 0.625 µM (hVR1 [3]; inhibition determined at 0.625 μM, read-out: IC50 (human being) 45° C. column: inhibition (as a percentage) @ 0.625 μM): 35% |
| COc1cc(C(C)C(=O)NCc2cc(C(F)(F)F)nn2-c2cccc(Cl)c2)ccc1NS(C)(=O)=O (stereo not drawn) [Example 28, N-((1-(3-chlorophenyl)-3-(trifluoromethyl)-1H-pyrazol-5-yl)methyl)-2-(3-methoxy-4-(methylsulphonamido)phenyl)propanamide] | 0.4 nM | – | – | IC50 (hVR1 [2]; read-out: IC50 (human being) hVR1 [nM], pH): 16 nM; IC50 (hVR1 [3]; read-out: IC50 (human being) [nM], 45° C.): 665 nM |
| CC(C(=O)NCc1cc(C(C)(C)C)nn1C)c1ccc(NS(C)(=O)=O)c(F)c1 (stereo not drawn) [Example 3, N-((3-tert-butyl-1-methyl-1H-pyrazol-5-yl)methyl)-2-(3-fluoro-4-(methylsulphonamido)phenyl)propanamide] | – | NE | – | inhibition at 5 µM ([4]; read-out: Ki (rat) Cap: inhibition (as a percentage) @ 5 μM, capsaicin, inhibition determined at 5 μM): 14%; inhibition at 5 µM (hVR1 [1]; CHO-K1, read-out: Ki (human being) Cap column: inhibition (as a percentage) @ 5 μM, capsaicin, inhibition determined at 5 μM): 12% |
| C[C@H](C(=O)NCc1cc(C(C)(C)C)nn1-c1ccc(Cl)cc1)c1ccc(NS(C)(=O)=O)c(F)c1 [Example 15, (S)-N-((3-tert-butyl-1-(4-chlorophenyl)-1H-pyrazol-5-yl)methyl)-2-(3-fluoro-4-(methylsulphonamido)phenyl)propanamide] | 2.1 nM | – | 2.5 nM | inhibition at 5 µM (hVR1 [2]; read-out: IC50 (human being) hVR1 pH column: inhibition (as a percentage) @ 5 μM, inhibition determined at 5 μM): 14% |
| CC(C(=O)NCc1cc(C(C)(C)C)nn1-c1ccc(Cl)cc1)c1ccc(NS(C)(=O)=O)c(F)c1 (stereo not drawn) [Example 14, N-((3-tert-butyl-1-(4-chlorophenyl)-1H-pyrazol-5-yl)methyl)-2-(3-fluoro-4-(methylsulphonamido)phenyl)propanamide] | 3.7 nM | – | 7.2 nM | inhibition at 10 µM (hVR1 [2]): 25% |
| COc1cc(C(C)C(=O)NCc2cc(C(C)(C)C)nn2-c2cccc(Cl)c2)ccc1NS(C)(=O)=O (stereo not drawn) [Example 27, N-((3-tert-butyl-1-(3-chlorophenyl)-1H-pyrazol-5-yl)methyl)-2-(3-methoxy-4-(methylsulphonamido)phenyl)propanamide] | 2.2 nM | NE | 1.2 nM | – |
| Cc1ccc(/C=C/n2nc(C(C)(C)C)cc2CNC(=O)C(C)c2ccc(NS(C)(=O)=O)c(F)c2)cc1 (stereo not drawn) [Example 19, (E)-N-((3-tert-butyl-1-(4-methylstyryl)-1H-pyrazol-5-yl)methyl)-2-(3-fluoro-4-(methylsulphonamido)phenyl)propanamide] | – | NE | 819 nM | inhibition at 1 µM (hVR1 [1]): 44% |
| COc1ccc(-n2nc(C(C)(C)C)cc2CNC(=O)C(C)c2ccc(NS(C)(=O)=O)c(F)c2)cc1 (stereo not drawn) [Example 20, N-((3-tert-butyl-1-(4-methoxyphenyl)-1H-pyrazol-5-yl)methyl)-2-(3-fluoro-4-(methylsulphonamido)phenyl)propanamide] | – | NE | 2830 nM | inhibition at 1 µM (hVR1 [1]): 55% |
| C[C@@H](C(=O)NCc1cc(C(F)(F)F)nn1-c1ccc(Cl)cc1)c1ccc(NS(C)(=O)=O)c(F)c1 [Example 22, (R)-N-((1-(4-chlorophenyl)-3-(trifluoromethyl)-1H-pyrazol-5-yl)methyl)-2-(3-fluoro-4-(methylsulphonamido)phenyl)propanamide] | 31.7 nM | – | 42.7 nM | inhibition at 10 µM (hVR1 [2]): 42% |
